Counter-ions that a name gives are not always drawn.
Key:
Assay type in all cases: biochemical
PIM-1 = PIM-1 (Homo sapiens, UniProt P11309); assay: Enzyme PIM-1 Assay ([33P]ATP incorporation into PIM2tide, filter plate); settings: averaged IC50; 35 μM ATP, 7.5 μM PIM2tide, 0.25 nM PIM-1, 60 min at 22° C.
Procedure, shortened: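 Ten-point, 3-fold dilution series (10 μM top, 2% DMSO final) tested for inhibition of 33P transfer from 35 μM ATP to 7.5 μM PIM2tide by 0.25 nM PIM-1. Reaction 60 min, 22 °C, pH 7.4 MOPS/MgCl2 buffer; phosphocellulose capture, scintillation counting, IC50 where fitted POC equals 50.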

[1] = biological target: T1, GST-tagged recombinant full-length human Pim-2 (Homo sapiens, UniProt Q9P1W9); assay: PIM-2 Assay (as Example A); settings: averaged IC50; 4 μM ATP, 1.0 μM PIM2tide, 1.5 nM Pim-2
T1 construct: GST-tagged recombinant full-length human Pim-2; GST
Procedure, shortened: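 IC50 was derived by 4-parameter logistic fitting of percent-of-control data over a 10-point, 3-fold series (highest 10 μM, 2% DMSO). Reactions held 1.5 nM GST-Pim-2 (full-length, human), 4 μM [γ-33P]ATP and 1.0 μM PIM2tide for 60 min at 22 °C, pH 7.4; 33P-peptide captured on P81 filters.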

recombinant rat PIM-3 = recombinant rat PIM-3 (Rattus norvegicus, UniProt O70444); assay: PIM-3 Assay (as Example A); settings: averaged IC50; 30 μM ATP, 3.75 μM PIM2tide, 0.5 nM PIM-3
Procedure, shortened: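 33P incorporation from 30 μM [γ-33P]ATP into 3.75 μM PIM2tide by 0.5 nM rat PIM-3, 60 min at 22 °C in pH 7.4 MOPS buffer, read by P81 filter capture and scintillation counting. Compounds tested in 3-fold dilutions up to 10 μM final, 2% DMSO; percent-of-control data fitted by 4-parameter logistic for IC50.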

PIM-1, sequence (P11309 whole entry, species assumed): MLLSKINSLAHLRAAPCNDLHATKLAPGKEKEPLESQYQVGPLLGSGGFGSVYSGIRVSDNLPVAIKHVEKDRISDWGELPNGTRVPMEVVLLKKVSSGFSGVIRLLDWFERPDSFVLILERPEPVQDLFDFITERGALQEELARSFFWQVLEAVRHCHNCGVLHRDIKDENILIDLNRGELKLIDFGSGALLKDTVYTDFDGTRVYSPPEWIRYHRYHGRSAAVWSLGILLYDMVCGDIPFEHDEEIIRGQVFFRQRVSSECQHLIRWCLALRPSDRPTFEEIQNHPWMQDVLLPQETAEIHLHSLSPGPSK
T1 sequence (Q9P1W9 whole entry): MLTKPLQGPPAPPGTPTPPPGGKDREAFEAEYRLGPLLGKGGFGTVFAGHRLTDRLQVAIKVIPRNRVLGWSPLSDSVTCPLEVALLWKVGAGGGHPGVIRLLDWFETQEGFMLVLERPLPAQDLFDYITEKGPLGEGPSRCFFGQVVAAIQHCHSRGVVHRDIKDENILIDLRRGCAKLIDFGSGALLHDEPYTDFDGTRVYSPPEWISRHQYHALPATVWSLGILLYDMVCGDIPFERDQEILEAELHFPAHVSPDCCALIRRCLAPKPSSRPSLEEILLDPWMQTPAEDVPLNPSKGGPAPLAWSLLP

Row | Structure (SMILES) | IC50 (PIM-1) | IC50 [1] | IC50 (recombinant rat PIM-3)
1 | C[C@@]1(N)CCN([C@@H](c2ccc3nnc(-c4ccc5cccc(C6CC6)c5n4)n3c2)C(F)(F)F)C1 [Example 94, (R)-1-((S)-1-(3-(8-cyclopropylquinolin-2-yl)-[1,2,4]triazolo[4,3-a]pyridin-6-yl)-2,2,2-trifluoroethyl)-3-methylpyrrolidin-3-amine dihydrochloride] | 0.29 nM | 31 nM | 4.6 nM
2 | C[C@@]1(N)CCN([C@H](c2ccc3nnc(-c4ccc5cccc(C6CC6)c5n4)n3c2)C(F)(F)F)C1 [Example 95, (R)-1-((R)-1-(3-(8-cyclopropylquinolin-2-yl)-[1,2,4]triazolo[4,3-a]pyridin-6-yl)-2,2,2-trifluoroethyl)-3-methylpyrrolidin-3-amine dihydrochloride] | 0.19 nM | 79 nM | 3 nM
3 | C[C@]1(N)CCN([C@@H](c2ccc3nnc(-c4ccc5cccc(C6CC6)c5n4)n3c2)C(F)(F)F)C1 [Example 96, (S)-1-((S)-1-(3-(8-cyclopropylquinolin-2-yl)-[1,2,4]triazolo[4,3-a]pyridin-6-yl)-2,2,2-trifluoroethyl)-3-methylpyrrolidin-3-amine dihydrochloride] | 0.12 nM | 5.4 nM | 0.5 nM
4 | C[C@]1(N)CCN([C@H](c2ccc3nnc(-c4ccc5cccc(C6CC6)c5n4)n3c2)C(F)(F)F)C1 [Example 97, (S)-1-((R)-1-(3-(8-cyclopropylquinolin-2-yl)-[1,2,4]triazolo[4,3-a]pyridin-6-yl)-2,2,2-trifluoroethyl)-3-methylpyrrolidin-3-amine dihydrochloride] | 0.11 nM | 65 nM | 8.1 nM
5 | COCCOc1cc(F)cc2ccc(-c3nnc4ccc([C@@H](N5CC[C@H](N)C5)C(F)(F)F)cn34)nc12 [Example 98, (S)-1-((R)-2,2,2-trifluoro-1-(3-(6-fluoro-8-(2-methoxyethoxy)quinolin-2-yl)-[1,2,4]triazolo[4,3-a]pyridin-6-yl)ethyl)pyrrolidin-3-amine hydrochloride] | 0.38 nM | > 100 nM | 1.8 nM
6 | CC(C)(C#N)c1cccc2ccc(-c3nnc4ccc([C@@H](N5CC[C@H](N)C5)C(F)(F)F)cn34)nc12 [Example 99, 2-(2-(6-((R)-1-((S)-3-aminopyrrolidin-1-yl)-2,2,2-trifluoroethyl)-[1,2,4]triazolo[4,3-a]pyridin-3-yl)quinolin-8-yl)-2-methylpropanenitrile dihydrochloride] | 0.11 nM | 55 nM | 0.6 nM
7 | CC(C)(C)c1cccc2ccc(-c3nnc4ccc([C@@H](N5CC[C@H](NCCO)C5)C(F)(F)F)cn34)nc12 [Example 100, 2-((S)-1-((R)-1-(3-(8-tert-butylquinolin-2-yl)-[1,2,4]triazolo[4,3-a]pyridin-6-yl)-2,2,2-trifluoroethyl)pyrrolidin-3-ylamino)ethanol dihydrochloride] | 0.1 nM | 6.5 nM | 1.1 nM
8 | CC(C)Oc1cccc2ccc(-c3nnc4ccc([C@@H](N5CC[C@H](NCCO)C5)C(F)(F)F)cn34)nc12 [Example 101, 2-((S)-1-((R)-2,2,2-trifluoro-1-(3-(8-isopropoxyquinolin-2-yl)-[1,2,4]triazolo[4,3-a]pyridin-6-yl)ethyl)pyrrolidin-3-ylamino)ethanol dihydrochloride] | 0.15 nM | 40 nM | 0.8 nM
9 | CC(C)Oc1cc(F)cc2ccc(-c3nnc4ccc([C@@H](N5CC[C@H](NCCO)C5)C(F)(F)F)cn34)nc12 [Example 102, 2-((S)-1-((R)-2,2,2-trifluoro-1-(3-(6-fluoro-8-isopropoxyquinolin-2-yl)-[1,2,4]triazolo[4,3-a]pyridin-6-yl)ethyl)pyrrolidin-3-ylamino)ethanol dihydrochloride] | 0.19 nM | 30 nM | 0.7 nM
10 | CC(C)Oc1cccc2ccc(-c3nnc4ccc([C@H](N5CC[C@@H](O)C5)C(F)(F)F)cn34)nc12 [Example 103, (R)-1-((S)-2,2,2-trifluoro-1-(3-(8-isopropoxyquinolin-2-yl)-[1,2,4]triazolo[4,3-a]pyridin-6-yl)ethyl)pyrrolidin-3-ol] | 0.1 nM | > 100 nM | 3.1 nM
11 | CC(C)(C)c1cccc2ccc(-c3nnc4ccc([C@H](N5CC[C@@H](O)C5)C(F)(F)F)cn34)nc12 [Example 104] | 0.17 nM | > 100 nM | 12 nM
12 | COCC(C)(C)c1cccc2ccc(-c3nnc4ccc([C@@H](N5CC[C@H](N)C5)C(F)(F)F)cn34)nc12 [Example 105, (S)-1-((R)-2,2,2-trifluoro-1-(3-(8-(1-methoxy-2-methylpropan-2-yl)quinolin-2-yl)-[1,2,4]triazolo[4,3-a]pyridin-6-yl)ethyl)pyrrolidin-3-amine dihydrochloride] | 0.04 nM | 13 nM | 0.7 nM
13 | CC(C)C(=O)Nc1ccc2ccc(-c3nnc4ccc([C@@H](N5CC[C@H](O)C5)C(F)(F)F)cn34)nc2c1 [Example 106, N-(2-(6-((R)-2,2,2-trifluoro-1-((S)-3-hydroxypyrrolidin-1-yl)ethyl)-[1,2,4]triazolo[4,3-a]pyridin-3-yl)quinolin-7-yl)isobutyramide] | 1.62 nM | > 100 nM | 3.4 nM
14 | CC(C)(C)C(=O)Nc1ccc2ccc(-c3nnc4ccc([C@@H](N5CC[C@H](O)C5)C(F)(F)F)cn34)nc2c1 [Example 107, N-(2-(6-((R)-2,2,2-trifluoro-1-((S)-3-hydroxypyrrolidin-1-yl)ethyl)-[1,2,4]triazolo[4,3-a]pyridin-3-yl)quinolin-7-yl)pivalamide] | 0.48 nM | > 100 nM | 0.9 nM
15 | COCCOc1c(F)ccc2ccc(-c3nnc4ccc([C@@H](N5CC[C@H](N)C5)C(F)(F)F)cn34)nc12 [Example 108, (S)-1-((R)-2,2,2-trifluoro-1-(3-(7-fluoro-8-(2-methoxyethoxy)quinolin-2-yl)-[1,2,4]triazolo[4,3-a]pyridin-6-yl)ethyl)pyrrolidin-3-amine hydrochloride] | 0.49 nM | > 100 nM | 4.7 nM
16 | CC(C)Oc1c(F)ccc2ccc(-c3nnc4ccc([C@@H](N5CC[C@H](N)C5)C(F)(F)F)cn34)nc12 [Example 109, (S)-1-((R)-2,2,2-trifluoro-1-(3-(7-fluoro-8-isopropoxyquinolin-2-yl)-[1,2,4]triazolo[4,3-a]pyridin-6-yl)ethyl)pyrrolidin-3-amine hydrochloride] | 0.28 nM | > 100 nM | 5.5 nM
17 | COCC(C)(COC)c1cccc2ccc(-c3nnc4ccc([C@@H](N5CC[C@H](N)C5)C(F)(F)F)cn34)nc12 [Example 110, (S)-1-((R)-1-(3-(8-(1,3-dimethoxy-2-methylpropan-2-yl)quinolin-2-yl)-[1,2,4]triazolo[4,3-a]pyridin-6-yl)-2,2,2-trifluoroethyl)pyrrolidin-3-amine dihydrochloride] | 0.19 nM | 95 nM | 1.8 nM
18 | COCCc1cccc2ccc(-c3nnc4ccc([C@@H](N5CC[C@H](N)C5)C(F)(F)F)cn34)nc12 [Example 111, (S)-1-((R)-2,2,2-trifluoro-1-(3-(8-(2-methoxyethyl)quinolin-2-yl)-[1,2,4]triazolo[4,3-a]pyridin-6-yl)ethyl)pyrrolidin-3-amine dihydrochloride] | 0.07 nM | 52 nM | 1 nM
19 | COCC1(c2cccc3ccc(-c4nnc5ccc([C@@H](N6CC[C@H](N)C6)C(F)(F)F)cn45)nc23)CC1 [Example 112, (S)-1-((R)-2,2,2-trifluoro-1-(3-(8-(1-(methoxymethyl)cyclopropyl)quinolin-2-yl)-[1,2,4]triazolo[4,3-a]pyridin-6-yl)ethyl)pyrrolidin-3-amine dihydrochloride] | 0.12 nM | 21 nM | 1.4 nM
20 | COc1cc2nc(-c3nnc4ccc([C@@H](N5CC[C@H](N)C5)C(F)(F)F)cn34)ccc2cc1F [Example 113, (S)-1-((R)-2,2,2-trifluoro-1-(3-(6-fluoro-7-methoxyquinolin-2-yl)-[1,2,4]triazolo[4,3-a]pyridin-6-yl)ethyl)pyrrolidin-3-amine hydrochloride] | 0.05 nM | > 100 nM | 2.3 nM
21 | N[C@H]1CCN([C@H](c2ccc3nnc(-c4ccc5cccc(C6(CO)CC6)c5n4)n3c2)C(F)(F)F)C1 [Example 114, (1-(2-(6-((R)-1-((S)-3-aminopyrrolidin-1-yl)-2,2,2-trifluoroethyl)-[1,2,4]triazolo[4,3-a]pyridin-3-yl)quinolin-8-yl)cyclopropyl)methanol dihydrochloride] | 0.06 nM | 5.6 nM | 0.3 nM
22 | Cc1c(OC(C)C)ccc2ccc(-c3nnc4ccc([C@@H](N5CC[C@H](N)C5)C(F)(F)F)cn34)nc12 [Example 116, (S)-1-((R)-2,2,2-trifluoro-1-(3-(7-isopropoxy-8-methylquinolin-2-yl)-[1,2,4]triazolo[4,3-a]pyridin-6-yl)ethyl)pyrrolidin-3-amine hydrochloride] | 0.24 nM | 76 nM | 1.8 nM

— patent publication US8889704B2 (Array BioPharma Inc., priority 2011, dated 2014)
